The test concerns the target Beta-adrenergic receptor kinase 1 (Homo sapiens) (UniProt P25098). The test can be described thus: ligand-induced GRK2 thermal stabilization – biophysical, Thermofluor, set 2, orthogonal assay for GRK2 aptamer-displacement inhibitor project, late-stage follow-up (AID 588468). Conditions: purified GRK2 thermal shift, ANS fluorescence; at 200 µM; active compounds read high.

Calls of active or inactive are those of the source.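 How the source made its calls: active means compounds whose thermal stabilization response of the kinase is above zero; inactive means the rest.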

Beta-adrenergic receptor kinase 1 (Homo sapiens), sequence (P25098 whole entry, looked up): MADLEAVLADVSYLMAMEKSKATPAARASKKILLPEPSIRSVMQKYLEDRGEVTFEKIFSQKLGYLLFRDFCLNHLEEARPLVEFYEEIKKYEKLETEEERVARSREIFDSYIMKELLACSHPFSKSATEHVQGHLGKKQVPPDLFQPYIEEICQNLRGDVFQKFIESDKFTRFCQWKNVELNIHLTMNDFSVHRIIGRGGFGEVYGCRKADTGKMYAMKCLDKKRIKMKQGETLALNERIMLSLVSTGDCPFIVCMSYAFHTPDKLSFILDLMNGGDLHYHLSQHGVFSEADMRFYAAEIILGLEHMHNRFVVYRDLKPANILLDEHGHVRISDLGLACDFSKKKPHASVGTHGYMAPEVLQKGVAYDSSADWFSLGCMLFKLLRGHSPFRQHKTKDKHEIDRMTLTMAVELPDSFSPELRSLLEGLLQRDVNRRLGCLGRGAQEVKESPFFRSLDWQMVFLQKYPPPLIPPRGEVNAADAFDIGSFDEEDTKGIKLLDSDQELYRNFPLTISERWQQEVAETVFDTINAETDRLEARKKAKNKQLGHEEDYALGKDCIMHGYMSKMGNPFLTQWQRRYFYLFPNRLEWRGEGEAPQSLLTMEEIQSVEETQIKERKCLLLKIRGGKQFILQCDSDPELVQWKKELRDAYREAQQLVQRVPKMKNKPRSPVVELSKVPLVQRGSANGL

For `COC(=O)c1ccc(NC(=O)CCS(=O)(=O)c2ccc(Br)cc2)cc1`, the thermal stabilization response is -62.8% (inactive). Regarding `CCOc1ccc(NC(=O)CCS(=O)(=O)c2ccc(Br)cc2)cc1`, the thermal stabilization response was -25.9% (inactive).

As for `C#CCSc1nc2sc3c(c2c(=O)n1C)CCC3`, the thermal stabilization response is 21.3%. In the case of `NS(=O)(=O)c1ccc(CCNC(=O)CCS(=O)(=O)c2ccc(Br)cc2)cc1`, the thermal stabilization response was -107% (inactive). For `CCN(CC)c1ccc(NC(=O)CCS(=O)(=O)c2ccc(Br)cc2)c(C)c1`, the thermal stabilization response is 72%.

Turning to `O=C(CCS(=O)(=O)c1ccc(Br)cc1)NCc1cccs1`, the thermal stabilization response was -152% (inactive).

For the compound `COC(=O)c1ccccc1NC(=O)CCS(=O)(=O)c1ccc(Br)s1`, the thermal stabilization response was -184% (inactive). Regarding `O=C(O)Cc1ccc(-n2cccc2)cc1`, the thermal stabilization response was -127% (inactive). In the case of `Cc1cccc(CCNC(=O)CCS(=O)(=O)c2ccc(Br)cc2)c1`, the thermal stabilization response was 44.5%. Turning to `Cc1ccccc1NC(=O)CCS(=O)(=O)c1ccc(Br)s1`, the thermal stabilization response is 116%. As for `CCOc1ccccc1NC(=O)CCS(=O)(=O)c1ccc(Br)cc1`, the thermal stabilization response is -16.1% (inactive).

`COc1ccc(Cl)cc1NC(=O)CCS(=O)(=O)c1ccc(Br)cc1`: the thermal stabilization response is -601% (inactive).

Regarding `O=C(CSc1nc2ccccc2c(=O)n1-c1ccccc1)NC(=O)CN1CCCC1=O`, the thermal stabilization response is -62% (inactive).

With `CC(CS(=O)(=O)c1ccc2c(c1)NC(=O)CS2)C(=O)NCc1ccccc1Cl` (stereo not drawn), the thermal stabilization response is -20.4% (inactive). As for `Cc1cc2ccccc2n1CCNC(=O)C(C)Oc1ccccc1` (stereo not drawn), the thermal stabilization response was -116% (inactive).

Regarding `O=C(CN1CCc2ccccc21)NC(=O)NCc1ccccc1`, the thermal stabilization response was 25.7%. To `CC(=O)N1CCN(Cc2nc3cc(Cl)ccc3c(=O)[nH]2)CC1` belongs -41.4% (inactive); to `O=C(CCS(=O)(=O)c1ccc(Br)s1)Nc1ccccc1Br`, -73.1% (inactive). As for `COc1ccc(NC(=O)CCS(=O)(=O)c2ccc(Br)s2)cc1`, the thermal stabilization response was -93.6% (inactive). To `COc1ccc([N+](=O)[O-])cc1NC(=O)CCS(=O)(=O)c1ccc(Br)cc1` belongs -85.1% (inactive); to `Cc1ccc(CCNC(=O)CCS(=O)(=O)c2ccc(Br)cc2)cc1`, 1.04%; to `O=C(CCS(=O)(=O)c1ccc(Br)cc1)Nc1ccc(Br)cc1F`, -34.7% (inactive). `COc1ccc(CCNC(=O)CCS(=O)(=O)c2ccc(Br)cc2)cc1OC`: the thermal stabilization response was -74.6% (inactive).

For the origin of these results see PubChem BioAssay AID588468 (NMMLSC, 2011).
